Test results from PMC5421785, “Citrullination only infrequently impacts peptide binding to HLA class II MHC” (PLoS ONE, 2017).
Like-named read-outs stand apart in the source and are kept apart here. Square brackets hold non-standard residues; d marks the D form. Ends that are not written are not given here. Peptide text beside a SMILES is read from it. Cit = NC(=O)NCCC[C@H](N)C(=O)O

Legend:
HLA-DRB1*01:01 = target: T1, HLA-DRB1*01:01 (Homo sapiens, UniProt P01903+P01911, A100R/D57E/F55L/F60I/F76Y/I96L/L162R/M171V/P40L/Q125E/R42F/V115G/Y59C); experiment: HLA class II peptide binding, inhibition of radiolabeled peptide binding to purified MHC
T1 construct: EBV transformed homozygous cell lines were used as sources of MHC molecules; endogenous in cells; host or cells: EBV transformed homozygous cell lines

HLA-DRB1*04:01 = target: T2, HLA-DRB1*04:01 (Homo sapiens, UniProt P01903+P01911, A100K/A169T/F76Y/I96L/K127E/L162R/M171V/N62H/P40V/Q125Y/R42H/S133A/S149N/S66Y/V115G/V209L/W38E); experiment: as above
T2 construct: EBV transformed homozygous cell lines were used as sources of MHC molecules; endogenous in cells; host or cells: EBV transformed homozygous cell lines

[1] = citrullinated 15-mer peptide (X = citrulline), purified HLA-DRB1*01:01, read-out: DRB1*01:01 binding capacity, Cit peptide (IC50 nM)
[2] = citrullinated 15-mer peptide (X = citrulline), purified HLA-DRB1*04:01, read-out: DRB1*04:01 binding capacity, Cit peptide (IC50 nM)
[3] = wild-type (unmodified Arg) 15-mer peptide, purified HLA-DRB1*01:01, read-out: DRB1*01:01 binding capacity, WT peptide (IC50 nM)
[4] = wild-type (unmodified Arg) 15-mer peptide, purified HLA-DRB1*04:01, read-out: DRB1*04:01 binding capacity, WT peptide (IC50 nM)
[5] = ratio of WT IC50 to Cit IC50, >1 = citrullination increases binding

| IC50 (HLA-DRB1*01:01; [1]) | IC50 (HLA-DRB1*04:01; [2]) | IC50 (HLA-DRB1*01:01; [3]) | IC50 (HLA-DRB1*04:01; [4]) | Compound | also measured |
| --- | --- | --- | --- | --- | --- |
| 93 nM | 32700 nM |  |  | CC(C)C[C@H](NC(=O)[C@@H](NC(=O)[C@H](C)NC(=O)[C@H](C)NC(=O)[C@@H](NC(=O)[C@@H](N)CC(C)C)C(C)C)C(C)C)C(=O)N[C@@H](CCCNC(N)=O)C(=O)N[C@@H](CS)C(=O)N[C@@H](CCC(N)=O)C(=O)NCC(=O)N[C@@H](CCC(N)=O)C(=O)N[C@@H](CC(=O)O)C(=O)N[C@H](C(=O)N[C@@H](CCC(N)=O)C(=O)N[C@@H](CCC(=O)O)C(=O)O)C(C)C [LVAAVLXCQGQDVQE] (H-LVAAVL[Cit]CQGQDVQE-OH) |  |
|  |  | 109 nM | 6220 nM | THSKRTLLIKTVETR [Vimentin 436 WT] |  |
|  |  | 1280 nM | > 40000 nM | ERGFPGLPGPSGEPG [Collagen 991 WT] |  |
|  |  |  |  | CC(C)C[C@H](NC(=O)[C@H](CC(N)=O)NC(=O)[C@H](CC(=O)O)NC(=O)[C@H](CCCNC(=N)N)NC(=O)[C@H](CCC(=O)O)NC(=O)[C@@H](NC(=O)[C@H](CCC(=O)O)NC(=O)[C@@H](NC(=O)[C@H](CCCNC(N)=O)NC(=O)[C@H](C)NC(=O)[C@H](CCCCN)NC(=O)[C@H](CC(=O)O)NC(=O)[C@@H](N)CC(N)=O)C(C)C)C(C)C)C(=O)N[C@@H](C)C(=O)N[C@@H](CCC(=O)O)C(=O)O [NDKAXVEVERDNLAE] (H-NDKA[Cit]VEVERDNLAE-OH) | IC50 (HLA-DRB1*01:01; citrullinated 15-mer (X), purified MHC, inhibition of radiolabeled peptide binding, dash = IC50 >40,000 nM, read-out: DRB1*01:01 binding capacity, Cit peptide (IC50 nM)): 1070 nM; IC50 (HLA-DRB1*04:01; citrullinated 15-mer (X), purified MHC, inhibition of radiolabeled peptide binding, dash = IC50 >40,000 nM, read-out: DRB1*04:01 binding capacity, Cit peptide (IC50 nM)): 905 nM |
| 5110 nM | 15500 nM |  |  | CC(C)C[C@H](NC(=O)[C@H](C)NC(=O)[C@H](CC(=O)O)NC(=O)[C@@H](NC(=O)[C@H](CCC(=O)O)NC(=O)[C@H](CS)NC(=O)[C@@H](NC(=O)[C@H](CC(C)C)NC(=O)[C@H](CO)NC(=O)[C@H](CCC(N)=O)NC(=O)[C@@H](NC(=O)[C@H](CCC(N)=O)NC(=O)[C@@H](N)CCCNC(N)=O)C(C)C)[C@@H](C)O)C(C)C)C(=O)N[C@@H](CCCCN)C(=O)NCC(=O)O [XQVQSLTCEVDALKG] (H-[Cit]QVQSLTCEVDALKG-OH) |  |
|  |  | > 40000 nM | > 40000 nM | PGPAGPTGKQGDRGE [Collagen 1076 WT] |  |
| > 40000 nM | > 40000 nM |  |  | CSCC[C@H](NC(=O)[C@@H]1CCCN1C(=O)CNC(=O)[C@H](CCC(N)=O)NC(=O)[C@H](C)NC(=O)CNC(=O)[C@H](C)NC(=O)[C@H](CCC(=O)O)NC(=O)CNC(=O)[C@H](CCCNC(N)=O)NC(=O)[C@H](CC(=O)O)NC(=O)CN)C(=O)NCC(=O)N1CCC[C@H]1C(=O)N[C@@H](CO)C(=O)O [GDXGEAGAQGPMGPS] (H-GD[Cit]GEAGAQGPMGPS-OH; N-terminus and C-terminus assumed) | DRB1*01:01 binding capacity, WT/cit ratio (HLA-DRB1*01:01; [5]): 0.2; DRB1*04:01 binding capacity, WT/cit ratio (HLA-DRB1*04:01; [5]): 1.0 |
|  |  |  |  | CC[C@H](C)[C@H](NC(=O)[C@H](CCC(N)=O)NC(=O)[C@H](CC(N)=O)NC(=O)[C@H](CC(N)=O)NC(=O)[C@H](CC(C)C)NC(=O)[C@@H](N)CO)C(=O)N[C@@H](CCC(=O)O)C(=O)N[C@@H](CO)C(=O)N[C@H](C(=O)N[C@@H](CCCNC(N)=O)C(=O)N[C@@H](CO)C(=O)N1CCC[C@H]1C(=O)N[C@@H](CCC(=O)O)C(=O)NCC(=O)N[C@@H](CO)C(=O)O)[C@@H](C)CC [SLNNQIESIXSPEGS] (H-SLNNQIESI[Cit]SPEGS-OH) | IC50 (HLA-DRB1*01:01; citrullinated peptide as listed (X at Cit position), read-out: DRB1*01:01 binding capacity Cit peptide (IC50 nM)): 6.5 nM; IC50 (HLA-DRB1*04:01; citrullinated peptide as listed (X at Cit position), read-out: DRB1*04:01 binding capacity Cit peptide (IC50 nM)): 18 nM |
|  |  | 239 nM | > 40000 nM | GIAGAPGFPGPRGPP [Collagen 426 WT] |  |
|  |  |  |  | VDQLTNDKARVEVER [Vimentin 161 WT] | IC50 (HLA-DRB1*01:01; read-out: DRB1*01:01 binding capacity, WT peptide (IC50 nM)): 16500 nM; IC50 (HLA-DRB1*04:01; read-out: DRB1*04:01 binding capacity, WT peptide (IC50 nM)): 31600 nM |
